This note sets out measurements from patent US9732091B2, “Tryptophanol-derived oxazoloisoindolinones: small-molecule P53 activators” (UNIVERSIDADE DO PORTO, priority 2013, dated 2017).

Common to all, as to assay type: cell-based, human
One test relates to MDA-MB-231 cells. The test can be described thus: apoptosis by flow cytometry (FITC-Annexin V and propidium iodide), MDA-MB-231. To be noted: GI50, 24 hours. How it is done: Apoptosis was analyzed by flow cytometry using FITC-Annexin V and propidium iodide. The effect of compounds was analyzed after 24 hours treatment using the concentration of GI50. Histograms represent one of two independent experiments; quantification of cells in apoptosis represents the mean±S.E.M. of two independent experiments.
Background: Flow cytometry measures light scatter and fluorescence of single cells or particles in a stream.

Test [1] concerns MDA-MB-231 cells (mutant p53 R280K). As to the kind of experiment: sensitization to etoposide and doxorubicin, SRB assay, MDA-MB-231. How it is done: FIG. 9 illustrates that SLMP53-1 sensitizes breast cancer MDA-MB-231 cells to the effects of etoposide and doxorubicin. The MDA-MB-231 tumor cells (with the mutant p53 R280K) were treated for 48 hours with increasing concentrations of etoposide ([…] to 6.00 μM) or doxorubicin (187.5 to 750.0 nM) in the presence of a very low concentration (between GI5 to GI10; 4 μM) of SLMP53-1 or with DMSO only. Effect of compounds on cell growth was analyzed following 48 hours incubation, using the sulforhodamine B (SRB) assay. Results are mean±SEM of three to four independent experiments.
It was also investigated if SLMP53-1 increased the sensitivity of MDA-MB-231 cells to the effects of various concentrations of etoposide (0.38 to 6.00 μM) and doxorubicin (187.5 to 750.0 nM). For that, a low concentration of SLMP53-1 (approximately the GI5 to GI10 concentration; 4 μM; without significant anti-proliferative effects on tumor cell lines) was used. […] Particularly, for 0.38 μM etoposide (for which an anti-proliferative effect is not observed), a 25% decrease of tumor cell growth was obtained in the presence of 4 μM of SLMP53-1.
On the technique in general: The SRB assay estimates cell density from bound dye.

Test [2] has as its system MDA-MB-231 breast tumor cells. As to the kind of experiment: Western blot of p53 and p53-target proteins, PARP cleavage, MDA-MB-231. To be noted: 16.6 μM (GI50), 24/48 hours. The text has this:
FIG. 7 illustrates that SLMP53-1 increases the levels of p53 and of proteins encoded by p53-target genes in MDA-MB-231 breast tumor cells.

Entries after “also recorded” stand apart in the source; their conditions may differ.

For `C[C@]12OC[C@H](Cc3c[nH]c4ccccc34)N1C(=O)c1ccccc12` [SLMP53-1], in the test on MDA-MB-231 cells, the apoptosis entry is recorded as “induces late apoptosis; also recorded: apoptotic cell death”. In addition, in test [1] (0.38 μM etoposide in the presence of 4 μM of SLMP53-1), the “decrease of tumor cell growth” value is reported as 25%. Also, the etoposide/doxorubicin-induced growth inhibition result in test [1] (4 μM SLMP53-1, three concentrations tested, 48 hours) is “increased”. Further, in test [2], the PARP cleavage result is recorded as “lead to PARP cleavage”; the “levels of p53 and of BAX, PUMA and p21” value is reported as “increased”.
